Here are results for 27 compounds from US7795261B2, “Substituted 1-piperidin-4-yl-4-pyrrolidin-3-yl-piperazine derivatives and their use as neurokinin antagonists” (Janssen Pharmaceutica NV, priority 2002, dated 2010).

Assay type in all cases: cell-based
For one experiment, the target named is NK1 (Homo sapiens, UniProt P25103). Put plainly: Signal transduction (ST), intracellular Ca++ (FLIPR), NK1 antagonistic activity. As to conditions: read-out: pIC50 NK1 (converted). In a few lines:
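Confluent cells loaded with 2 μM Fluo3 (1 h, 37 °C, probenecid), preincubated 20 min at RT with antagonist concentration range, then agonist added. Peak Ca++ transient read by FLIPR in Krebs buffer pH 7.4; IC50 by non-linear regression.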

A further experiment has as its target T1, NK2 (Homo sapiens, UniProt P21452).
T1 sequence (P21452 1-398): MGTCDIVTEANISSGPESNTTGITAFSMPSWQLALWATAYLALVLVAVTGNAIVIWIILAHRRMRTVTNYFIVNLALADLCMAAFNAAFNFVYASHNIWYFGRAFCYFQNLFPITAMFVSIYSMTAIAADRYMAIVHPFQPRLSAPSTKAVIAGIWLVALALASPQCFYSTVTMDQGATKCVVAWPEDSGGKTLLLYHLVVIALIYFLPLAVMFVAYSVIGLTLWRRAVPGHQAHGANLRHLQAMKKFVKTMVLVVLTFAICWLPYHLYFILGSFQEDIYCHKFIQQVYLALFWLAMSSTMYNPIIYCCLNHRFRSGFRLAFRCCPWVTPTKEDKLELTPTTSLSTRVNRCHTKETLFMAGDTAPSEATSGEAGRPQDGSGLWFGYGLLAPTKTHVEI
Put plainly: Signal transduction (ST), intracellular Ca++ (FLIPR), NK2. To be noted: read-out: pIC50 NK2 (converted). How it is done:
[The procedure below names another target; the source lists this target under the same test.] This test evaluates in vitro functional NK1 antagonistic activity. For the measurements of intracellular Ca^++ concentrations the cells were grown on 96-well (black wall/transparent bottom) plates from Costar for 2 days until they reached confluence. The cells were loaded with 2 μM Fluo3 in DMEM containing 0.1% BSA and 2.5 mM probenecid for 1 h at 37° C. They were washed 3× with a Krebs buffer (140 mM NaCl, 1 mM MgCl2×6H2O, 5 mM KCl, 10 mM glucose, 5 mM HEPES; 1.25 mM CaCl2; pH 7.4) containing 2.5 mM probenecid and 0.1% BSA (Ca^++-buffer). The cells were preincubated with a concentration range of antagonists for 20 min at RT and Ca^++-signals after addition of the agonists were measured in a Fluorescence Image Plate Reader (FLIPR from Molecular Devices, Crawley, England). The peak of the Ca^++-transient was considered as the relevant signal and the mean values of corresponding wells were analysed as described below.
The sigmoidal dose response curves were analysed by computerised curve-fitting, using the GraphPad Program. […] For antagonist responses the IC50-value was calculated using non-linear regression.
The last columns indicates—without being limited therefore—for which the compounds might be most suitable. Of course, since for some neurokinin receptors no data was determined, it is obvious that these compounds might be attributed to another suitable use.

In the next experiment the target is T2, NK3 (Homo sapiens, UniProt P29371).
T2 sequence (P29371 1-465): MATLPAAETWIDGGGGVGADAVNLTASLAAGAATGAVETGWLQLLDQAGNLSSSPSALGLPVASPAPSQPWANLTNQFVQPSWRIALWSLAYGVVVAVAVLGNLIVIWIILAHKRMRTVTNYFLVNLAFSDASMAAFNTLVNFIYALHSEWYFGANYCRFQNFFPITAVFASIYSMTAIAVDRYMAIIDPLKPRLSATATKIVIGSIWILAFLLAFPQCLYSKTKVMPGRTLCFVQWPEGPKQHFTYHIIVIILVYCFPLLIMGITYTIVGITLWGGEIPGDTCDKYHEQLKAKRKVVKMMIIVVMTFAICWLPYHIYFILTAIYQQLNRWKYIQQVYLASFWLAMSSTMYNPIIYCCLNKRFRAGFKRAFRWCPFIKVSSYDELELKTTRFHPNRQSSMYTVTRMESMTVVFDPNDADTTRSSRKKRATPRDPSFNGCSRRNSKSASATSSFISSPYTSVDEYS
Description: Signal transduction (ST), intracellular Ca++ (FLIPR), NK3. To be noted: read-out: pIC50 NK3 (converted).

The structures appear in SMILES notation.

NK1, sequence (P25103 whole entry): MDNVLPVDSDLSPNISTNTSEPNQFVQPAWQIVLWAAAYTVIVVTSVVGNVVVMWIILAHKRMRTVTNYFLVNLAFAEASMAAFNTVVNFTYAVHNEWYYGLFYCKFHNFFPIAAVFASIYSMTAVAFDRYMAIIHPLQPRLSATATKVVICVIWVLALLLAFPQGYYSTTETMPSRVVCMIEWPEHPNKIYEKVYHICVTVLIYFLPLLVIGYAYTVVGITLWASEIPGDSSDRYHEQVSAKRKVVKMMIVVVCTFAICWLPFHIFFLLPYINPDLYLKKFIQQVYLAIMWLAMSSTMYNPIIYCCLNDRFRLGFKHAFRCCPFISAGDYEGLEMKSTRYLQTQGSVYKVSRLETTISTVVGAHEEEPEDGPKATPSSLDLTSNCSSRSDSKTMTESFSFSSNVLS

In the case of `O=C(C1CCOC1)N1CCC(N2CCN(C3CCN(C(=O)c4cc(C(F)(F)F)cc(C(F)(F)F)c4)C(Cc4ccc(F)c(F)c4)C3)CC2)C1` (single isomer, unassigned) [Compound 269], the IC50 on NK1 is 0.00398 µM; on NK2 it was 2.51 µM; at NK3, 6.31 µM.

As to `COc1cccc(NC(=O)N2CCC(N3CCN(C4CCN(C(=O)c5cc(C(F)(F)F)cc(C(F)(F)F)c5)C(Cc5ccccc5)C4)CC3)C2)c1` (centres unmarked) [Compound 343], the IC50 is 0.0316 µM at NK1, 3.16 µM at NK2 and 7.94 µM at NK3.

In the case of `Cn1cccc1C(=O)CN1CCC(N2CCN([C@H]3CCN(C(=O)c4cc(C(F)(F)F)cc(C(F)(F)F)c4)[C@H](Cc4ccccc4)C3)CC2)C1` (some centres unmarked) [Compound 103], the IC50 at NK1 was 0.0158 µM; on NK2 it was 5.01 µM; at NK3, 0.398 µM.

On to `O=C(c1cc(C(F)(F)F)cc(C(F)(F)F)c1)N1CC[C@H](N2CCN(C3CCN(S(=O)(=O)c4cccc(O)c4)C3)CC2)C[C@H]1Cc1ccccc1` (some centres unmarked) [Compound 348], for which the IC50 was 0.01 µM on NK1, 0.316 µM on NK2 and 2 µM on NK3.

As to `O=C(c1cc(C(F)(F)F)cc(C(F)(F)F)c1)N1CC[C@H](N2CCN(C3CCN(S(=O)(=O)c4cccs4)C3)CC2)C[C@H]1Cc1ccccc1` (some centres unmarked) [Compound 76], the IC50 was 0.02 µM on NK1, 1.26 µM on NK2 and 0.2 µM on NK3.

`O=C(C1CC1)N1CCC(N2CCN(C3CCN(C(=O)c4cc(C(F)(F)F)cc(C(F)(F)F)c4)C(Cc4ccc(F)c(F)c4)C3)CC2)C1` (single isomer, unassigned) [Compound 252]: the IC50 at NK1 is 0.01 µM; on NK2, 1 µM; on NK3 it was 0.501 µM.

Turning to `O=C(Nc1ccccc1F)N1CCC(N2CCN([C@H]3CCN(C(=O)c4cc(C(F)(F)F)cc(C(F)(F)F)c4)[C@H](Cc4ccccc4)C3)CC2)C1` (some centres unmarked) [Compound 284], the IC50 on NK1 is 0.0126 µM; at NK2, 5.01 µM; on NK3, 3.98 µM.

For the compound `CC1(C)OC(=O)C[C@H]1C(=O)N1CCC(N2CCN([C@H]3CCN(C(=O)c4cc(C(F)(F)F)cc(C(F)(F)F)c4)[C@H](Cc4ccccc4)C3)CC2)C1` (some centres unmarked) [Compound 404], the IC50 on NK1 is 0.00631 µM; at NK2, 5.01 µM; on NK3 it was 0.0794 µM.

As for `O=C(c1c(Cl)cccc1Cl)N1CCC(N2CCN(C3CCN(C(=O)c4cc(C(F)(F)F)cc(C(F)(F)F)c4)C(Cc4ccc(F)c(F)c4)C3)CC2)C1` (single isomer, unassigned) [Compound 239], the IC50 at NK1 is 0.01 µM; at NK2 it was 1 µM; at NK3, 0.251 µM.

`COc1ccccc1C(=O)N1CCC(N2CCN([C@H]3CCN(C(=O)c4cc(C(F)(F)F)cc(C(F)(F)F)c4)[C@H](Cc4ccccc4)C3)CC2)C1` (some centres unmarked) [Compound 14]: the values for the IC50 on NK1, on NK2 and on NK3 were 0.00794 µM, 5.01 µM and 0.316 µM, respectively.

As for `O=C(C1CCOC1)N1CCC(N2CCN(C3CCN(C(=O)c4cc(C(F)(F)F)cc(C(F)(F)F)c4)C(Cc4ccc(Cl)c(Cl)c4)C3)CC2)C1` (centres unmarked) [Compound 172], the IC50 is 0.00794 µM at NK1, 0.794 µM at NK2 and 0.398 µM at NK3.

In the case of `CC(C(=O)N1CCC(N2CCN(C3CCN(C(=O)c4cc(C(F)(F)F)cc(C(F)(F)F)c4)C(Cc4ccc(Cl)c(Cl)c4)C3)CC2)C1)c1ccccc1` (centres unmarked) [Compound 176], the IC50 was 0.02 µM on NK1, 2.51 µM at NK2 and 1 µM on NK3.

`O=C(C1CCCCN1C(=O)c1ccccc1Cl)N1CCC(N2CCN(C3CCN(C(=O)c4cc(C(F)(F)F)cc(C(F)(F)F)c4)C(Cc4ccccc4)C3)CC2)C1` (centres unmarked) [Compound 295]: the IC50 is 0.0158 µM on NK1, 2 µM on NK2 and 0.316 µM at NK3.

`O=C(C1CCCCC1)N1CCC(N2CCN([C@H]3CCN(C(=O)c4cc(C(F)(F)F)cc(C(F)(F)F)c4)[C@H](Cc4ccccc4)C3)CC2)C1` (some centres unmarked) [Compound 178]: the figures for the IC50 on NK1, at NK2 and at NK3 were 0.01 µM, 2 µM and 0.251 µM, respectively.

`O=C(C1CC1)N1CCC(N2CCN([C@H]3CCN(C(=O)c4cc(C(F)(F)F)cc(C(F)(F)F)c4)[C@H](Cc4ccc(Cl)c(Cl)c4)C3)CC2)C1` (relative stereo) [Compound 162]: the IC50 at NK1 was 0.01 µM; at NK2 it was 1 µM; on NK3, 0.501 µM.

Turning to `O=C(c1cccs1)N1CCC(N2CCN(C3CCN(C(=O)c4cc(C(F)(F)F)cc(C(F)(F)F)c4)C(Cc4ccc(F)c(F)c4)C3)CC2)C1` (single isomer, unassigned) [Compound 232], the IC50 on NK1 is 0.00631 µM; on NK2, 3.16 µM; at NK3, 0.126 µM.

Consider `O=C(C1CCOC1)N1CCC(N2CCN(C3CCN(C(=O)c4cc(C(F)(F)F)cc(C(F)(F)F)c4)C(Cc4ccc(F)c(F)c4)C3)CC2)C1` (single isomer, unassigned) [Compound 285], for which the IC50 at NK1 is 0.00631 µM; at NK2, 3.16 µM; at NK3, 0.631 µM.

Consider `O=C(c1cc(C(F)(F)F)cc(C(F)(F)F)c1)N1CCC(N2CCN(C3CCN(S(=O)(=O)c4cc(CCOCc5ccccc5)cs4)C3)CC2)CC1Cc1ccccc1` (centres unmarked) [Compound 335], for which the results for the IC50 at NK1 and on NK2 were 0.316 µM and 1 µM, respectively.

Regarding `O=C(c1cc(C(F)(F)F)cc(C(F)(F)F)c1)N1CC[C@H](N2CCN(C3CCN(S(=O)(=O)c4occc4CCOCc4ccccc4)C3)CC2)C[C@H]1Cc1ccccc1` (some centres unmarked) [Compound 410], the IC50 at NK1 is 0.0501 µM; at NK2, 1.26 µM.

On to `O=C(c1cc(C(F)(F)F)cc(C(F)(F)F)c1)N1CC[C@H](N2CCN(C3CCN(S(=O)(=O)c4ccc(CCOCc5ccccc5)s4)C3)CC2)C[C@H]1Cc1ccccc1` (some centres unmarked) [Compound 336], for which the IC50 was 0.158 µM on NK1 and 1 µM at NK2.

Regarding `CC(C)N/C(=N\C#N)N1CCC(N2CCN(C3CCN(C(=O)c4cc(C(F)(F)F)cc(C(F)(F)F)c4)C(Cc4ccccc4)C3)CC2)C1` (centres unmarked) [Compound 344], the IC50 was 0.02 µM at NK1 and 3.98 µM on NK2.

In the case of `Cn1cc(C(=O)N2CCC(N3CCN([C@H]4CCN(C(=O)c5cc(C(F)(F)F)cc(C(F)(F)F)c5)[C@H](Cc5ccccc5)C4)CC3)C2)ccc1=O` (some centres unmarked) [Compound 29], the figures for the IC50 on NK1 and at NK2 were 0.0794 µM and 2 µM, respectively.

Turning to `O=C(c1cc(C(F)(F)F)cc(C(F)(F)F)c1)N1CC[C@H](N2CCN(C3CCN(S(=O)(=O)c4ccc(COCc5ccccc5)s4)C3)CC2)C[C@H]1Cc1ccccc1` (some centres unmarked) [Compound 345], the IC50 was 0.2 µM at NK1 and 0.501 µM at NK2.

As to `COc1ccc(C(O)C(=O)N2CCC(N3CCN([C@H]4CCN(C(=O)c5cc(C(F)(F)F)cc(C(F)(F)F)c5)[C@H](Cc5ccccc5)C4)CC3)C2)cc1` (some centres unmarked) [Compound 333], the results for the IC50 at NK1 and on NK2 were 0.02 µM and 2.51 µM, respectively.

For `O=C(C1CCCCN1)N1CCC(N2CCN(C3CCN(C(=O)c4cc(C(F)(F)F)cc(C(F)(F)F)c4)C(Cc4ccccc4)C3)CC2)C1` (centres unmarked) [Compound 294], the IC50 was 0.02 µM at NK1 and 7.94 µM on NK2.

Regarding `O=C(c1cccnc1)N1CCC(N2CCN([C@H]3CCN(C(=O)c4cc(C(F)(F)F)cc(C(F)(F)F)c4)[C@H](Cc4ccccc4)C3)CC2)C1` (some centres unmarked) [Compound 28], the IC50 at NK1 was 0.0501 µM; at NK2 it was 2.51 µM.

Take `O=C(c1cc(C(F)(F)F)cc(C(F)(F)F)c1)N1CC[C@H](N2CCN([C@@H]3CCNC3)CC2)C[C@H]1Cc1ccc(Cl)c(Cl)c1` [Compound 262]: the IC50 was 0.00631 µM at NK1 and 0.501 µM at NK2.
